Measurements: patent US20100075361A1, “METHODS OF GENERATING FLORESCENCE RESONANCE ENERGY TRANSFER (FRET) BETWEEN SEMICONDUCTOR QUANTUM DOTS AND FLUORESCENT DYES/PROTEINS VIA MULTI-PHOTON EXCITATION, ACHIEVING ZERO BACKGROUND OR DIRECT EXCITATION CONTRIBUTIONS TO THE FRET SIGNATURE” (Government of the United States of America the Secretary of …, priority 2008, published 2010)

Columns and labels:
[1] = Two-photon action cross-section measurement, fluorescein as standard; assay type: physicochemical; conditions: Water, 800 nm
Excerpt: Steady-state composite spectra collected from samples under two-photon excitation were deconvoluted to yield individual photoluminence (PL) contributions using the known spectral profiles of isolated QDs and Cy3 dye emissions (see FIG. 4A, FIG. 4B, FIG. 4C and FIG. 4D).
Table 1 contains data describing two-photon action cross-sections for QDs populations in water and toluene, characterized using fluorescein as a standard in aqueous buffer (φσ2p=36 GM at 800 nm and pH 13), Cy3, fluorescein and wild-type green fluorescent protein (GFP) (from reference 28). Although multi-photon absorption profiles are non-linear optical phenomena, the longer wavelength emitting QD populations show higher two-photon action cross-sections, consistent with the one-photon absorption behavior.

HEK 293T/17 cells = assay: Two-photon / one-photon fluorescence microscopy of cells incubated with QD-peptide conjugates; assay type: cell-based, human; conditions: two-photon excitation, 840 nm
Excerpt: In the first exemplary embodiment, in regard to quantum dot peptide conjugates, cell penetrating peptide (CPP) was synthesized by Boc-solid phase peptide synthesis with the sequence (His)8-Trp-Gly-Leu-Ala-Aib-Ser-Gly-(Arg)8-amide, where Aib is the artificial residue alpha-amino isobutyric acid. The Cy3-labeled peptide was synthesized with the sequence, Ac-(His)6-Gly-Leu-Aib-[…]NH2, where Ac is an acetyl group at the N-terminus. This peptide was labeled with a maleimide-functionalized Cy3 at the cysteine residue. The polyhistidine sequences at the N-termini of the peptides allowed and/or caused their self-assembly on the QD surface. […]
Exemplary embodiments show a unique advantage of two-photon excitation to probe energy transfer between QDs and conjugated dye acceptors, while investigating the stability of self-assembled QD-peptide conjugates within cells using fluorescence microscopy. […]
Further, in the first exemplary embodiment, in regard to cell imaging, two-photon cell imaging is performed with a BIO-RAD MRC-1024 MP confocal system using ˜10 mW of 840 nm pulsed excitation (˜80 fs, 80 MHz) at the focal plane of a 60×, 0.9 NA water immersion objective microscope. […] DAPI fluorescence cross-talk was subtracted from the QD channel. […]

Substance	Two-photon action cross-section [1] [GM]	Cy3 fluorescence / FRET from QDs to Cy3 in cells (HEK 293T/17 cells)
Cy3	<1	–
Tf-Cy3: Cy3-labeled transferrin, endosomal marker, mixed with unlabeled CPP-QD, not bound to QDs	–	does not show any evidence of Cy3 fluorescence
